# From US20070225388A1, “Porous Bodies and Method of Production Thereof” (priority 2004, published 2007)
# Experiment: Dispersion of material on exposure to aqueous medium (visual)
# Assay type: physicochemical
# Settings: dye not incorporated into a porous body
structure (smiles),measurement,value
CCNc1ccc2ccccc2c1N=Nc1ccc(N=Nc2ccccc2)cc1 [Fat red 7B dye],dispersion or solubility of the dye alone in water,particles of dye remained at the bottom of the vessel
